Laboratory results reported in patent publication US9833497B2, “Human originated EGF domain proteins and use of the same” (CHENGDU SOURCEBIO LIMITED-LIABILITY COMPANY, priority 2013, dated 2017).

Legend:
Assay type in all cases: cell-based
Pseudomonas aeruginosa = assay: MIC against Gram-negative bacteria: Pseudomonas aeruginosa; conditions: for MIC against P. aeruginosa: 96-well plate, 37° C., 10 h; for MIC (μg/mL) P. aeruginosa / MIC: P. aeruginosa
Method in brief: (§1)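 Antibacterial activity of purified human EGF domain proteins: two-fold concentration series, triplicate wells, LB broth, 5×10^5 CFU/mL bacteria, 37° C shaking incubation. The lowest concentration without growth defines the MIC.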

Moraxella catarrhalis = assay: MIC against Gram-negative bacteria: Moraxella catarrhalis; conditions: for MIC against M. catarrhalis: 96-well plate, 37° C., 10 h; for MIC (μg/mL) M. catarrhalis / MIC: M. catarrhalis
Method in brief: as §1

Klebsiella pneumonia = assay: MIC against Gram-negative bacteria: Klebsiella pneumonia; conditions: for MIC against K. pneumonia: 96-well plate, 37° C., 10 h; for MIC (μg/mL) K. pneumonia / MIC: K. pneumonia
Method in brief: as §1

Aeromonas hydrophila = assay: MIC against Gram-negative bacteria: Aeromonas hydrophila; conditions: for MIC against A. hydrophila: 96-well plate, 37° C., 10 h; for MIC (μg/mL) A. hydrophila / MIC: A. hydrophila
Method in brief: as §1

E. coli DH5α = assay: Antibacterial activity: MIC and growth curve against E. coli DH5α in 96-well plate; conditions: minimal inhibitory concentration against E. coli DH5α; 96-well plate, 5×10^5 CFU/mL, 37° C., judged after 8 h
Method in brief: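 Log-phase DH5α (OD600 about 0.5, 37° C, 185 rpm in LB) was pelleted, resuspended in fresh LB and seeded at 5×10^5 CFU/mL with recombinant protein at 50, 25 and 12.5 μg/mL (two-fold series), in triplicate. Plates were shaken at 175 rpm, 37° C, and OD600 was read every 30 min. MIC was the lowest concentration with no growth.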

Proteus mirabilis = assay: MIC against Gram-negative bacteria: Proteus mirabilis; conditions: for MIC against P. mirabilis: 96-well plate, 37° C., 10 h; for MIC (μg/mL) P. mirabilis / MIC: P. mirabilis
Method in brief: as §1

E. coli BL21 = assay: MIC against Gram-negative bacteria: E. coli BL21; conditions: for MIC against E. coli BL21: 96-well plate, 37° C., 10 h; for MIC (μg/mL) E. coli BL21 / MIC: E. coli BL21
Method in brief: as §1

Citrobacter diversus = assay: MIC against Gram-negative bacteria: Citrobacter diversus; conditions: for MIC against C. diversus: 96-well plate, 37° C., 10 h; for MIC (μg/mL) C. diversus / MIC: C. diversus
Method in brief: as §1

Serratia marcescens = assay: MIC against Gram-negative bacteria: Serratia marcescens; conditions: for MIC against S. marcescens: 96-well plate, 37° C., 10 h; for MIC (μg/mL) S. marcescens / MIC: S. marcescens
Method in brief: as §1

Enterobacter cloacae = assay: MIC against Gram-negative bacteria: Enterobacter cloacae; conditions: for MIC against E. cloacae: 96-well plate, 37° C., 10 h; for MIC (μg/mL) E. cloacae / MIC: E. cloacae
Method in brief: as §1

Proteus vulgaris = assay: MIC against Gram-negative bacteria: Proteus vulgaris; conditions: for MIC against P. vulgaris: 96-well plate, 37° C., 10 h; for MIC (μg/mL) P. vulgaris / MIC: P. vulgaris
Method in brief: as §1

[1] = 10 h cultivation at 37° C., 5×10^5 CFU/mL, two-fold serial dilution
[2] = 10 h cultivation at 37° C., 5×10^5 CFU/mL

For “PRT1078 (GTNKCRVNNGGCSSLCLATPGSRQCACAEDQVLDADGVTCL; listed as Homo sapiens)”, the “MIC P. aeruginosa” value (Pseudomonas aeruginosa; [1]) was 25 µg/mL, the “MIC M. catarrhalis” value (Moraxella catarrhalis; [1]) was 50 µg/mL and the “MIC K. pneumonia” value (Klebsiella pneumonia; [1]) was 12.5 µg/mL. For the same substance, the “MIC A. hydrophila” value (Aeromonas hydrophila; [1]) was 50 µg/mL, the MIC (E. coli DH5α) was 25 µg/mL and the “MIC P. mirabilis” value (Proteus mirabilis; [1]) was 12.5 µg/mL. The “MIC E. coli BL21” value (E. coli BL21; [1]) was 50 µg/mL, the “MIC C. diversus” value (Citrobacter diversus; [1]) was 12.5 µg/mL and the “MIC S. marcescens” value (Serratia marcescens; [1]) was 12.5 µg/mL. For the same substance, the “MIC E. cloacae” value (Enterobacter cloacae; [1]) was 25 µg/mL and the “MIC P. vulgaris” value (Proteus vulgaris; [1]) was 50 µg/mL.

In the case of “PRT576 (CTCNLLGTNPQQCPSPDQCHCDPSSGQCPCLPNVQGPSCDRCAPNFWNLTSGHGCQP; listed as Homo sapiens)”, the “MIC against P. aeruginosa” value (Pseudomonas aeruginosa; 5×10^5 CFU/mL) was 12.5 µg/mL, the “MIC against M. catarrhalis” value (Moraxella catarrhalis; 5×10^5 CFU/mL) was 50 µg/mL and the “MIC against K. pneumonia” value (Klebsiella pneumonia; 5×10^5 CFU/mL) was 12.5 µg/mL. The “MIC against A. hydrophila” value (Aeromonas hydrophila; 5×10^5 CFU/mL) was 12.5 µg/mL, the MIC (E. coli DH5α) was 12.5 µg/mL and the “MIC against P. mirabilis” value (Proteus mirabilis; 5×10^5 CFU/mL) was 12.5 µg/mL. For the same substance, the “MIC against E. coli BL21” value (E. coli BL21; 5×10^5 CFU/mL) was 12.5 µg/mL, the “MIC against C. diversus” value (Citrobacter diversus; 5×10^5 CFU/mL) was 12.5 µg/mL and the “MIC against S. marcescens” value (Serratia marcescens; 5×10^5 CFU/mL) was 25 µg/mL. For the same substance, the “MIC against E. cloacae” value (Enterobacter cloacae; 5×10^5 CFU/mL) was 12.5 µg/mL and the “MIC against P. vulgaris” value (Proteus vulgaris; 5×10^5 CFU/mL) was 50 µg/mL.

With “PRT165 (DVRACSSAPCANNGTCVSLDDGLYECSCAPGYSGKDCQ; listed as Homo sapiens)” the “MIC (μg/mL) P. aeruginosa” value (Pseudomonas aeruginosa; [2]) was 25 µg/mL, the “MIC (μg/mL) M. catarrhalis” value (Moraxella catarrhalis; [2]) was 25 µg/mL and the “MIC (μg/mL) K. pneumonia” value (Klebsiella pneumonia; [2]) was 12.5 µg/mL. For the same substance, the “MIC (μg/mL) A. hydrophila” value (Aeromonas hydrophila; [2]) was 25 µg/mL, the MIC (E. coli DH5α) was 12.5 µg/mL and the “MIC (μg/mL) P. mirabilis” value (Proteus mirabilis; [2]) was 12.5 µg/mL. For the same substance, the “MIC (μg/mL) E. coli BL21” value (E. coli BL21; [2]) was 12.5 µg/mL, the “MIC (μg/mL) C. diversus” value (Citrobacter diversus; [2]) was 25 µg/mL and the “MIC (μg/mL) S. marcescens” value (Serratia marcescens; [2]) was 12.5 µg/mL. For the same substance, the “MIC (μg/mL) E. cloacae” value (Enterobacter cloacae; [2]) was 25 µg/mL and the “MIC (μg/mL) P. vulgaris” value (Proteus vulgaris; [2]) was 25 µg/mL.

In the case of “PRT253 (DYCSQNTCLNGGKCSWTHGAGYVCKCPPQFSGKHCE; listed as Homo sapiens)”, the “MIC (μg/mL) P. aeruginosa” value (Pseudomonas aeruginosa; [2]) was 12.5 µg/mL, the “MIC (μg/mL) M. catarrhalis” value (Moraxella catarrhalis; [2]) was 25 µg/mL and the “MIC (μg/mL) K. pneumonia” value (Klebsiella pneumonia; [2]) was 25 µg/mL. The “MIC (μg/mL) A. hydrophila” value (Aeromonas hydrophila; [2]) was 25 µg/mL, the MIC (E. coli DH5α) was 12.5 µg/mL and the “MIC (μg/mL) P. mirabilis” value (Proteus mirabilis; [2]) was 12.5 µg/mL. The “MIC (μg/mL) E. coli BL21” value (E. coli BL21; [2]) was 25 µg/mL, the “MIC (μg/mL) C. diversus” value (Citrobacter diversus; [2]) was 12.5 µg/mL and the “MIC (μg/mL) S. marcescens” value (Serratia marcescens; [2]) was 12.5 µg/mL. For the same substance, the “MIC (μg/mL) E. cloacae” value (Enterobacter cloacae; [2]) was 12.5 µg/mL and the “MIC (μg/mL) P. vulgaris” value (Proteus vulgaris; [2]) was 25 µg/mL.

“PRT950 (CESGCASSPCQHGGSCHPQRQPPYYSCQCAPPFSGSRCE; listed as Homo sapiens)” showed an MIC (Pseudomonas aeruginosa; 10 h cultivation at 37° C.) of 50 µg/mL, an MIC (Moraxella catarrhalis; 10 h cultivation at 37° C.) of 12.5 µg/mL and an MIC (Klebsiella pneumonia; 10 h cultivation at 37° C.) of 25 µg/mL. For the same substance, the MIC (Aeromonas hydrophila; 10 h cultivation at 37° C.) was 50 µg/mL, the MIC (E. coli DH5α) was 50 µg/mL and the MIC (Proteus mirabilis; 10 h cultivation at 37° C.) was 50 µg/mL. For the same substance, the MIC (E. coli BL21; 10 h cultivation at 37° C.) was 12.5 µg/mL, the MIC (Citrobacter diversus; 10 h cultivation at 37° C.) was 25 µg/mL and the MIC (Serratia marcescens; 10 h cultivation at 37° C.) was 12.5 µg/mL. The MIC (Enterobacter cloacae; 10 h cultivation at 37° C.) was 12.5 µg/mL and the MIC (Proteus vulgaris; 10 h cultivation at 37° C.) was 25 µg/mL.

“PRT1018 (DVDECETQGPPHCRNGGTCQNSAGSFHCVCVSGWGGTSCE; listed as Homo sapiens)” showed an MIC (Pseudomonas aeruginosa; 10 h cultivation at 37° C.) of 50 µg/mL, an MIC (Moraxella catarrhalis; 10 h cultivation at 37° C.) of 50 µg/mL and an MIC (Klebsiella pneumonia; 10 h cultivation at 37° C.) of 12.5 µg/mL. The MIC (Aeromonas hydrophila; 10 h cultivation at 37° C.) was 50 µg/mL, the MIC (E. coli DH5α) was 25 µg/mL and the MIC (Proteus mirabilis; 10 h cultivation at 37° C.) was 12.5 µg/mL. The MIC (E. coli BL21; 10 h cultivation at 37° C.) was 12.5 µg/mL, the MIC (Citrobacter diversus; 10 h cultivation at 37° C.) was 12.5 µg/mL and the MIC (Serratia marcescens; 10 h cultivation at 37° C.) was 25 µg/mL. It also gave an MIC (Enterobacter cloacae; 10 h cultivation at 37° C.) of 25 µg/mL and an MIC (Proteus vulgaris; 10 h cultivation at 37° C.) of 50 µg/mL.

“PRT483 (DCRAVYDRYSDDFCSGHGQCNCGRCDCKAGWYGKKCE; listed as Homo sapiens)” was tested, and the “MIC against P. aeruginosa” value (Pseudomonas aeruginosa; 5×10^5 CFU/mL) was 50 µg/mL, the “MIC against M. catarrhalis” value (Moraxella catarrhalis; 5×10^5 CFU/mL) was 25 µg/mL and the “MIC against K. pneumonia” value (Klebsiella pneumonia; 5×10^5 CFU/mL) was 25 µg/mL. For the same substance, the “MIC against A. hydrophila” value (Aeromonas hydrophila; 5×10^5 CFU/mL) was 25 µg/mL, the MIC (E. coli DH5α) was 12.5 µg/mL and the “MIC against P. mirabilis” value (Proteus mirabilis; 5×10^5 CFU/mL) was 12.5 µg/mL. The “MIC against E. coli BL21” value (E. coli BL21; 5×10^5 CFU/mL) was 25 µg/mL, the “MIC against C. diversus” value (Citrobacter diversus; 5×10^5 CFU/mL) was 50 µg/mL and the “MIC against S. marcescens” value (Serratia marcescens; 5×10^5 CFU/mL) was 50 µg/mL. The “MIC against E. cloacae” value (Enterobacter cloacae; 5×10^5 CFU/mL) was 12.5 µg/mL and the “MIC against P. vulgaris” value (Proteus vulgaris; 5×10^5 CFU/mL) was 25 µg/mL.
